Assay results: paper PMC2891242 (Bioorganic & medicinal chemistry, 2009)
Entries after “also recorded” stand apart in the source; their conditions may differ. Marks after values point to notes of the source that are not given here.

Assays:
human NR1/NR2B = human NR1/NR2B (Homo sapiens, UniProt Q05586+Q13224); assay: Two electrode voltage clamp concentration-effect curve, human NR1/NR2B; assay type: cell-based
α1-adrenergic receptor = assay: [3H]prazosin displacement from brain membranes; assay type: binding, Wistar rat; settings: for α1-adrenergic binding: displacement of ligand at 3 μM; for α1-Adrenergic (% displacement at 3 μM): 3 μM test compound, 0.25 nM [3H]prazosin, duplicate
MDR1 = assay: MDR1-MDCK permeability; assay type: in vitro ADME; settings: dog, MDCK-MDR1, pH 7.4
GluR1 = GluR1 (Rattus norvegicus, UniProt P19490); assay: Two electrode voltage clamp, homomeric GluR1 AMPA receptors in Xenopus oocytes; assay type: cell-based
Chain of GluR1 (P19490 19-907): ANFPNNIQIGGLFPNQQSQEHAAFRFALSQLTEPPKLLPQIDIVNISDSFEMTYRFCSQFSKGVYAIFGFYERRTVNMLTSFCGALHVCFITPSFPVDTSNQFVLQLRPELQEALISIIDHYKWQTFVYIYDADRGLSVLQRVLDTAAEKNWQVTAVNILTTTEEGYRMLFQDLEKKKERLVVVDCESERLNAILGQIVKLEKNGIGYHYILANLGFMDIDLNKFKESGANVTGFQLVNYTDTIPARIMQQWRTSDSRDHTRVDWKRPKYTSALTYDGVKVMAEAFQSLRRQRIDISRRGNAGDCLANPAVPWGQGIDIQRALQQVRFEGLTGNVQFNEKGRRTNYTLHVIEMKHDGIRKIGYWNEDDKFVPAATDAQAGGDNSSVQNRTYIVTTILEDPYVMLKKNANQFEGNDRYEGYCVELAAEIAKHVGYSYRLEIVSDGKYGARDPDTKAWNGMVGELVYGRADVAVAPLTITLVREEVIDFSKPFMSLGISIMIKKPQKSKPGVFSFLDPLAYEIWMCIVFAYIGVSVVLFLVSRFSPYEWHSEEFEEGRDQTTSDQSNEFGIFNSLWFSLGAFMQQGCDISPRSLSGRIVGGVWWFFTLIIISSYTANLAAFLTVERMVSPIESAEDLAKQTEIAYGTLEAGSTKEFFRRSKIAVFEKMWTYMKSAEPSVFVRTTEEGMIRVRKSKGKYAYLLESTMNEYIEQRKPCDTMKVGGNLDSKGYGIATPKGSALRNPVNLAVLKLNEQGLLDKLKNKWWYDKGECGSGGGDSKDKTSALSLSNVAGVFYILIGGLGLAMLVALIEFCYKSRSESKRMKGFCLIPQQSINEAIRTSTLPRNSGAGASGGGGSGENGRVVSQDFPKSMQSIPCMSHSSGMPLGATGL

[1] = test system: voltage-gated Na+ or K+ currents; assay type: cell-based, rat; settings: 3 μM; cultured cortical neurons; Na+ at −10 mV, K+ at +50 mV
NR1/NR2B(ΔATD) = NR1/NR2B(ΔATD) (Rattus norvegicus, UniProt Q00960); assay: Two electrode voltage clamp, amino terminal domain deletion mutant NR1/NR2B; assay type: cell-based; settings: maximal glutamate and glycine
GluR6 = GluR6 (Rattus norvegicus, UniProt P42260); assay type: cell-based
Chain of GluR6 (P42260 32-908): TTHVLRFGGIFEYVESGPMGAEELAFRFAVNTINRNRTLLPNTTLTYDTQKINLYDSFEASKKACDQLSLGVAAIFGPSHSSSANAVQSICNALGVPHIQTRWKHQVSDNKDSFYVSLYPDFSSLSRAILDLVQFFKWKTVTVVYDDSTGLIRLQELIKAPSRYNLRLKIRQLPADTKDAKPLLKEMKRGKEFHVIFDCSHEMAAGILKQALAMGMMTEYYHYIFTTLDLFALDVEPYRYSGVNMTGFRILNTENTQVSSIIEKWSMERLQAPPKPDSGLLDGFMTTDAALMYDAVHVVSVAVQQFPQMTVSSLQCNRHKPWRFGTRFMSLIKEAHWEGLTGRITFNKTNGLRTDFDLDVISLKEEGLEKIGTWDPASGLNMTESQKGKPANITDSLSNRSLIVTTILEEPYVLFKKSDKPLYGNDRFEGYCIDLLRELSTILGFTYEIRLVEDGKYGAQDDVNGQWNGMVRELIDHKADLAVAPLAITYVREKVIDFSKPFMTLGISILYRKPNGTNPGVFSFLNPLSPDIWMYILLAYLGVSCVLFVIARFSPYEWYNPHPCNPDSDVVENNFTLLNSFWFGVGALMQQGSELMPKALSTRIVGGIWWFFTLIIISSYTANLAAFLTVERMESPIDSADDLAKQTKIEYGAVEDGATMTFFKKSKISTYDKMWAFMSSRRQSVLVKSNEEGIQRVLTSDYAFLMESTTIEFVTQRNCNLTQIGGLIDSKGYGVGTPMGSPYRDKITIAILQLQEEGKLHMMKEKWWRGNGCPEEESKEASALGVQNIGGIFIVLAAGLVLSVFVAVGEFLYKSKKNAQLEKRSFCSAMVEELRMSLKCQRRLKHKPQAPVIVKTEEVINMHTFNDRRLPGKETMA

rat NR1/NR2B = rat NR1/NR2B (Rattus norvegicus, UniProt P35439+Q00960); assay: Two electrode voltage clamp, recombinant NR1/NR2B in Xenopus oocytes; assay type: cell-based; settings: n = 5
[2] = target: human ether-a-go-go potassium channel (hERG) (Homo sapiens, UniProt Q12809); assay: [3H]astemizole displacement, hERG expressed in HEK293 cells; assay type: binding
Chain of human ether-a-go-go potassium channel (hERG) (Q12809 whole entry): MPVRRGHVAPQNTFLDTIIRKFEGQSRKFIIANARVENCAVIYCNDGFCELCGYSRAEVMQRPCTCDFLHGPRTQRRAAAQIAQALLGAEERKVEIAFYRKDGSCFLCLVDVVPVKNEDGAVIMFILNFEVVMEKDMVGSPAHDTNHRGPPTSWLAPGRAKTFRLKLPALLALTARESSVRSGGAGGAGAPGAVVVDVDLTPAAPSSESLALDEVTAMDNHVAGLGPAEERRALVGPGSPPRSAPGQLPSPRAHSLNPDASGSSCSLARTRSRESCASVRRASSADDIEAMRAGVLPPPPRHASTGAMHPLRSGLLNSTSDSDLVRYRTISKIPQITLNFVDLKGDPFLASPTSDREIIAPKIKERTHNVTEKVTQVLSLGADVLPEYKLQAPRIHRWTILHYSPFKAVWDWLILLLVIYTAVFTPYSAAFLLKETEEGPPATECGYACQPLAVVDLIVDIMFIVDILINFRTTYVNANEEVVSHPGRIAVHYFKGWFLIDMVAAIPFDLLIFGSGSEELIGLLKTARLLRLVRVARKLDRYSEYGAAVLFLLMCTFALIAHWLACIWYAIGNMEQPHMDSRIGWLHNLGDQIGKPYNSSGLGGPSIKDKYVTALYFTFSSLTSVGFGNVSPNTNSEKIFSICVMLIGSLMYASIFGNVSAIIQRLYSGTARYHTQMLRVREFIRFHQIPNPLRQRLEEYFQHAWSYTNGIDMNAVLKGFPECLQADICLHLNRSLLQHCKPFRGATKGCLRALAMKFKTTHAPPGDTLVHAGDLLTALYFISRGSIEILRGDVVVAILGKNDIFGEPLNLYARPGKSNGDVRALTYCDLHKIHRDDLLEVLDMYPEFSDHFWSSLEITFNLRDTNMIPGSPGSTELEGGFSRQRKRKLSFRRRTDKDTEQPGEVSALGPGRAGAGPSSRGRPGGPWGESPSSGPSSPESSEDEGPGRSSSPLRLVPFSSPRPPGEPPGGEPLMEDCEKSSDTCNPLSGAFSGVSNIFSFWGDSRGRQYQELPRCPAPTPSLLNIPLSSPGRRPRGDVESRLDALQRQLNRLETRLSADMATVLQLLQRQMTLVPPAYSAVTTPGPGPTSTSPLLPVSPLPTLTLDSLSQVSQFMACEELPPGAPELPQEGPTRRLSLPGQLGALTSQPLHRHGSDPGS

Chain of human NR1/NR2B (Q13224 27-1484, other chains not shown): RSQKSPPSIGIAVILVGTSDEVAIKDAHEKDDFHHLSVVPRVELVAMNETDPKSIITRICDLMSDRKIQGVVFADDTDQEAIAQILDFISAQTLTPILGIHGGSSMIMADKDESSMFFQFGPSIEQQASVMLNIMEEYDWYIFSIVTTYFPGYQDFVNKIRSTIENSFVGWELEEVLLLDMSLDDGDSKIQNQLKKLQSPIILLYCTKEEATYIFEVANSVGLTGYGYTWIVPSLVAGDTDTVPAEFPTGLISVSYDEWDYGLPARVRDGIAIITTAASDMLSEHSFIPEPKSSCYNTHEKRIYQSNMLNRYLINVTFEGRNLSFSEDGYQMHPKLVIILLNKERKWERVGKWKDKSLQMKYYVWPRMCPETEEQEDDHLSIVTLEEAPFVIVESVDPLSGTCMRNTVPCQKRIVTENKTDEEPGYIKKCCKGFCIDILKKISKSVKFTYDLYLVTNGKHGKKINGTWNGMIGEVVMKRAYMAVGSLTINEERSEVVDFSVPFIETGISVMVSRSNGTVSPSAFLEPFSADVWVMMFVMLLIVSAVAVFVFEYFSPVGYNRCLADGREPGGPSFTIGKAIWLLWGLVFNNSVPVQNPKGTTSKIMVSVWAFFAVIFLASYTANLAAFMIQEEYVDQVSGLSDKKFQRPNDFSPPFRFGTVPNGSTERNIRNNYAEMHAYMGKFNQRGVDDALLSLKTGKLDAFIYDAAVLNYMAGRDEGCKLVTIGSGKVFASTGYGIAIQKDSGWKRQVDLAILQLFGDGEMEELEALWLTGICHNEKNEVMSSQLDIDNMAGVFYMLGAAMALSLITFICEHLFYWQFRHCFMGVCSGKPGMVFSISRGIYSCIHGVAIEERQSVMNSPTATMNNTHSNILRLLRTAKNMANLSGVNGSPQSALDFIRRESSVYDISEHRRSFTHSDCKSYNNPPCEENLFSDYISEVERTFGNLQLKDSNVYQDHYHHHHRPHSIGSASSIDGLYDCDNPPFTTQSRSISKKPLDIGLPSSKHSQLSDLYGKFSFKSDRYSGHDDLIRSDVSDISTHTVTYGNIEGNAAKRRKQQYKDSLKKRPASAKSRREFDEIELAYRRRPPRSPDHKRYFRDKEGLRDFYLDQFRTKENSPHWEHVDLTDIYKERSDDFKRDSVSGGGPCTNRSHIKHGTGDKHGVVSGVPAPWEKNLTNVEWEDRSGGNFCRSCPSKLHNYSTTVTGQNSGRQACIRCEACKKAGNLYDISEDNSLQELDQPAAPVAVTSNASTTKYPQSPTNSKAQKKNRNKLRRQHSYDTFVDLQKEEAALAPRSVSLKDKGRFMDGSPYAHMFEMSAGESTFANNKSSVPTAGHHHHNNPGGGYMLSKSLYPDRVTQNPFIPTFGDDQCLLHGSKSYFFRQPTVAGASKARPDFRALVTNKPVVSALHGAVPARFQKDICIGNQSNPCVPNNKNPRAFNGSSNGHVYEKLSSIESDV

CS(=O)(=O)Nc1ccc(OCCNCC(=O)Nc2ccc(Cl)c(Cl)c2)cc1 [Compound 67, N-(3,4-Dichlorophenyl)-2-(2-(4-(methylsulfonamido)-phenoxy)ethylamino) acetamide]
IC50 (human NR1/NR2B): ~1 µM

CS(=O)(=O)Nc1ccc(OCCN2CCN(c3ccc(Cl)c(Cl)c3)C2=O)cc1 [Compound 71, N-(4-(2-(3-(3,4-Dichlorophenyl)-2-oxoimidazolidin-1-yl)ethoxy)phenyl)methanesulfonamide]
α1-adrenergic binding (α1-adrenergic receptor): negligible

CS(=O)(=O)Nc1ccc(CCC(=O)NCCNc2ccc(Cl)c(Cl)c2)cc1 [Compound 49, N-(2-(3,4-Dichlorophenylamino)ethyl)-3-(4-(methylsulfonamido)phenyl)propanamide]
α1-adrenergic binding (α1-adrenergic receptor): neither amide 49 or 52 showed any α1-adrenergic binding

CS(=O)(=O)Nc1ccc(OCC(=O)N2CCN(c3ccc(Cl)c(Cl)c3)CC2)cc1 [Compound 57, N-(4-(2-(4-(3,4-Dichlorophenyl)piperazin-1-yl)-2-oxoethoxy)phenyl)methanesulfonamide]
Papp A→B at 2 h, 5 μM (MDR1): 4.8 ×10⁻⁶ cm/s

CS(=O)(=O)Nc1ccc(CCCN2CCN(c3ccc(Cl)c(Cl)c3)C2=O)cc1 [Compound 70, N-(4-(3-(3-(3,4-Dichlorophenyl)-2-oxoimidazolidin-1-yl)propyl)phenyl)methanesulfonamide]
α1-Adrenergic (% displacement at 3 μM) (α1-adrenergic receptor): <1% | α1-adrenergic binding (α1-adrenergic receptor): negligible

CS(=O)(=O)Nc1ccc(CCC(=O)NNC(=S)Nc2ccc(Cl)c(Cl)c2)cc1 [Compound 14, 4-(3,4-Dichlorophenyl)-1-(3-(4-(methylsulfonamido)-phenyl)propanoyl)thiosemicarbazide]
α1-Adrenergic (% displacement at 3 μM) (α1-adrenergic receptor): <1%

CS(=O)(=O)Nc1ccc(OCC(=O)NCCNc2ccc(Cl)c(Cl)c2)cc1 [Compound 52, N-(2-(3,4-Dichlorophenylamino)ethyl)-2-(4-(meth-ylsulfonamido)phenoxy)acetamide]
effect on recombinant AMPA (GluR1) receptors (GluR1; 3 μM): no detectable effects | effect on voltage-gated Na+ or K+ currents [1]: no detectable effects | effect on current response of NR1/NR2B(ΔATD) (NR1/NR2B(ΔATD)): virtually no effect | effect on recombinant kainate receptors (GluR6) (GluR6; 3 μM): no detectable effects | voltage dependence of inhibition (rat NR1/NR2B): voltage-independent | Ki [2]: ~12 µM | hERG binding [2]: minimal | α1-Adrenergic (% displacement at 3 μM) (α1-adrenergic receptor): <1% | α1-adrenergic binding (α1-adrenergic receptor): neither amide 49 or 52 showed any α1-adrenergic binding; also recorded: minimal

CS(=O)(=O)Nc1ccc(CCC(=O)NNC(=O)Cc2ccc(Cl)c(Cl)c2)cc1 [Compound 16, N’-(2-(3,4-Dichlorophenyl)acetyl)-3-(4-(methylsulfonamido)phenyl)propanehydrazide]
remaining activity at 3 µM (GluR1; read-out: GluR1 % response): 101 ± 0.5% | remaining activity at 3 µM (GluR6; read-out: GluR6 % response): 97 ± 1% | IC50 (human NR1/NR2B): 5.75 µM

CS(=O)(=O)Nc1ccc(CCC(=O)NC/C=C/c2ccc(Cl)c(Cl)c2)cc1 [Compound 50, N-(3,4-Dichlorocinnamyl)-3-(4-(methylsulfonamido)-phenyl)propanamide]
hERG (% displacement) at 3 μM ([2]; 3 μM test compound, 1.5 nM [3H]-astemizole): 47 ^* % | α1-adrenergic binding (α1-adrenergic receptor): without actions

CS(=O)(=O)Nc1ccc(OCC(=O)NCCCc2ccc(Cl)c(Cl)c2)cc1 [Compound 54, N-(3-(3,4-Dichlorophenyl)propyl)-2-(4-(methylsulfonamido)phenoxy)acetamide]
hERG binding [2]: negligible | α1-Adrenergic (% displacement at 3 μM) (α1-adrenergic receptor): <1% | α1-adrenergic binding (α1-adrenergic receptor): negligible
